Test results taken from article PMC11562385 (RSC Chemical Biology, 2024).
Where two headings read alike, the source gives them in different places. Square brackets hold non-standard residues; d marks the D form. Peptide text beside a SMILES is read from it. * marks the point of attachment. Dab = NCC[C@H](N)C(=O)O; Acryloyl = C=CC(=O)*

Key:
PD1:PDL1 interaction = target: T1, PD1:PDL1 interaction (Homo sapiens, UniProt Q15116); assay: PD1/PDL1 immunoblocking ELISA (BPS Bioscience kit cat # 72005); type: binding
T1 construct: purchased BPS Bioscience 72005
Description: Original loops with Phe/Trp and their Gly-derived analogs. Experimental EC50 values from inhibitory dose–response curves. Error bars indicate the mean ± SD, (n = 3). […]
SDS -Pages, buffers, and stain were purchased from Fisher
8. Immunoblocking ELISA Assay
Peptide inhibitor stock solutions were prepared in the concentration range of approximately 1-5 mM in DMSO. […]
plate was then washed and blocked with blocking buffer for 1 h at room temperature. Inhibitor solutions (ranging from 0.01 to 100 μM) and a blank solution (DMSO/PBS buffer) were added to designated wells. To initiate the […]
inhibitor solutions. After a 2 h incubation at room temperature, the plate was washed and blocked again for 10 min. Streptavidin-HRP (diluted at 1 : 1000) was added and incubated for 1 h at room temperature with gentle shaking. The plate was washed and blocked once more for 10 min. ELISA ECL substrate was added, and the resulting chemoluminescence was immediately measured in a luminometer (FLUOstar OPTIMA, BMG Labtech).
The luminescence value of the blank was subtracted from all readings according to the manufacturer's

[1] = Variable-temperature CD melting curves (CD-melts at 228±2 nm and 202±2 nm), individual and global two-state fits; type: physicochemical
Description: Recently, our laboratory brought forward a novel synthetic technology for the synthesis of acyclic β-hairpins with long loops. […] To compare hairpins’ stability, both regular (R) and bulged (B) scaffolds were crafted around a flexible 10-residue model loop (G4K2G4) and analyzed by CD (circular dichroism) spectroscopy (Fig. 2(A), see ESI, ^† Table S5). The […] structure of these model scaffolds 1avs.2a in solution were recorded in the far-UV CD spectra. […] The CD-exciton intensity was therefore used as a global probe to determine the %-folding of ADAPTins and to obtain melting curves corresponding to the hairpin fraying mechanism upon a gradual increase of temperature (0 to 95 °C).[68] […] In addition, NMR (nuclear magnetic resonance) chemical shifts were measured to determine variations in backbone […] structures (Fig. 2(B)). Secondary chemical shift deviations (CSDs) were calculated against random coil values[69] for both ADAPTin scaffolds 1vs.2 to verify that the hairpins were folded and if any variation of conformational rigidity exist within the loops. […]
Mass Spectrometer coupled to a Vanquish™ Neo UHPLC System (Thermo Scientific™). Peptide solutions for circular dichroism (CD) were prepared within a concentration range of 15-120 µM in a phosphate buffer (15 mM, […]
measured accurately using a JASCO V-670 spectrophotometer relied on the combined molar absorptivity of Trp (ε280 = 5580 M-1 .cm-1 per Trp) and Tyr (ε280 = 1280 M-1 .cm-1 per Tyr) to determine each sample's concentration.
CD spectra were recorded using a JASCO J-810 Spectropolarimeter equipped with a temperature controller module JASCO PFD-425S. Raw CD melting curves were processed in SpectraGryph, and fitting was performed in OriginPro 9.0 (Originlab Corporation, U.S.A.). NMR samples were prepared by reconstituting freeze -dried peptides (~ 1-5 mg) in mixture of water and DMSO -d6 (90:10 v/v) using 2,2-dimethyl-2-silapentane-5-sulfonate (DSS) as internal standard for chemical shifts (0 ppm), and spectra were recorded at 291 K (18 °C) unless otherwise stated. Chemical shifts ( δ) are reported in ppm. Samples for NMR experiments were prepared in a range of 3-10 mM of peptide in solution unless otherwise noted.

[2] = ELISA, mean of three independent experiments, read-out: EC50 Value
[3] = xlsx sheet of the peptide, individual fit of CD-melt

T1 sequence (Q15116 25-167 limits assumed): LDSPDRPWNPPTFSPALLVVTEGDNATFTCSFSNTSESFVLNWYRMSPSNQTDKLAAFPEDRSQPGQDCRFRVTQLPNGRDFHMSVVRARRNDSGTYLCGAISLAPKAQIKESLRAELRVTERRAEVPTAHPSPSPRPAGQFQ

CC(C)C[C@H](NC(=O)[C@H](CCC(N)=O)NC(=O)[C@H](CCCNC(=N)N)NC(=O)[C@H](C)NC(=O)[C@@H](NC(=O)[C@H](Cc1c[nH]c2ccccc12)NC(=O)[C@@H](N)CCCNC(=N)N)C(C)C)C(=O)N[C@@H](Cc1ccc(O)cc1)C(=O)N[C@@H](Cc1ccc(O)cc1)C(=O)N[C@@H](Cc1ccccc1)C(=O)N[C@@H](CC(=O)O)C(=O)N[C@@H](Cc1ccc(O)cc1)C(=O)N[C@@H](Cc1c[nH]c2ccccc12)C(=O)N[C@H](C(=O)N[C@@H](Cc1c[nH]c2ccccc12)C(=O)N[C@@H](CCC(=O)O)C(=O)O)C(C)C [2m] (H-RWVARQLYYFDYWVWE-OH)
EC50 (PD1:PDL1 interaction; [2]): 144 nM

CSCC[C@H](NC(=O)CNC(=O)[C@H](CCC(=O)O)NC(=O)[C@H](CCCNC(=N)N)NC(=O)[C@H](C)NC(=O)[C@@H](NC(=O)[C@H](Cc1c[nH]c2ccccc12)NC(=O)[C@@H](N)CCCNC(=N)N)C(C)C)C(=O)N[C@@H](CC(N)=O)C(=O)N[C@H](C(=O)N[C@@H](CC(=O)O)C(=O)N[C@@H](Cc1c[nH]c2ccccc12)C(=O)N[C@@H](Cc1ccc(O)cc1)C(=O)N[C@@H](Cc1ccccc1)C(=O)N[C@@H](CC(=O)O)C(=O)N[C@@H](Cc1ccc(O)cc1)C(=O)N[C@@H](Cc1c[nH]c2ccccc12)C(=O)N[C@@H](Cc1cnc[nH]1)C(=O)N[C@@H](Cc1c[nH]c2ccccc12)C(=O)N[C@@H](CCC(=O)O)C(=O)O)[C@@H](C)O [2n] (H-RWVAREGMNTDWYFDYWHWE-OH)
EC50 (PD1:PDL1 interaction; [2]): 252 nM

CC[C@H](C)[C@H](NC(=O)[C@H](Cc1ccc(O)cc1)NC(=O)[C@H](Cc1c[nH]c2ccccc12)NC(=O)[C@H](Cc1ccc(O)cc1)NC(=O)[C@H](CC(N)=O)NC(=O)CNC(=O)[C@H](Cc1ccc(O)cc1)NC(=O)[C@H](C)NC(=O)[C@H](CCCNC(=N)N)NC(=O)[C@H](C)NC(=O)[C@@H](NC(=O)[C@H](Cc1c[nH]c2ccccc12)NC(=O)[C@@H](N)CCCNC(=N)N)C(C)C)C(=O)N[C@@H](CC(=O)O)C(=O)N[C@H](C(=O)N[C@@H](Cc1c[nH]c2ccccc12)C(=O)N[C@@H](Cc1cnc[nH]1)C(=O)N[C@@H](Cc1c[nH]c2ccccc12)C(=O)N[C@@H](CCC(=O)O)C(=O)O)C(C)C [2q] (H-RWVARAYGNYWYIDVWHWE-OH)
EC50 (PD1:PDL1 interaction; [2]): 230 nM

CSCC[C@H](NC(=O)CNC(=O)[C@H](CCC(=O)O)NC(=O)[C@H](CCCNC(=N)N)NC(=O)[C@H](C)NC(=O)[C@@H](NC(=O)[C@H](Cc1c[nH]c2ccccc12)NC(=O)[C@@H](N)CCCNC(=N)N)C(C)C)C(=O)N[C@@H](CC(N)=O)C(=O)N[C@H](C(=O)N[C@@H](CC(=O)O)C(=O)NCC(=O)N[C@@H](Cc1ccc(O)cc1)C(=O)N[C@@H](Cc1ccccc1)C(=O)N[C@@H](CC(=O)O)C(=O)N[C@@H](Cc1ccc(O)cc1)C(=O)N[C@@H](Cc1c[nH]c2ccccc12)C(=O)N[C@@H](Cc1cnc[nH]1)C(=O)N[C@@H](Cc1c[nH]c2ccccc12)C(=O)N[C@@H](CCC(=O)O)C(=O)O)[C@@H](C)O [2o] (H-RWVAREGMNTDGYFDYWHWE-OH)
EC50 (PD1:PDL1 interaction): 349 nM

CSCC[C@H](NC(=O)[C@H](CC(=O)O)NC(=O)[C@H](Cc1ccccc1)NC(=O)[C@H](CCCNC(=N)N)NC(=O)[C@H](Cc1ccc(O)cc1)NC(=O)[C@H](CC(=O)O)NC(=O)[C@H](CCCNC(=N)N)NC(=O)[C@H](CCCNC(=N)N)NC(=O)[C@H](C)NC(=O)[C@@H](NC(=O)[C@H](Cc1c[nH]c2ccccc12)NC(=O)[C@@H](N)CCCNC(=N)N)C(C)C)C(=O)NCC(=O)N[C@@H](Cc1ccccc1)C(=O)N[C@@H](CC(N)=O)C(=O)N[C@@H](Cc1ccc(O)cc1)C(=O)N[C@@H](Cc1c[nH]c2ccccc12)C(=O)N[C@H](C(=O)N[C@@H](Cc1c[nH]c2ccccc12)C(=O)N[C@@H](CCC(=O)O)C(=O)O)C(C)C [2k] (H-RWVARRDYRFDMGFNYWVWE-OH)
EC50 (PD1:PDL1 interaction; [2]): 170 nM

CSCC[C@H](NC(=O)[C@H](CC(=O)O)NC(=O)CNC(=O)[C@H](CCCNC(=N)N)NC(=O)[C@H](Cc1ccc(O)cc1)NC(=O)[C@H](CC(=O)O)NC(=O)[C@H](CCCNC(=N)N)NC(=O)[C@H](CCCNC(=N)N)NC(=O)[C@H](C)NC(=O)[C@@H](NC(=O)[C@H](Cc1c[nH]c2ccccc12)NC(=O)[C@@H](N)CCCNC(=N)N)C(C)C)C(=O)NCC(=O)N[C@@H](Cc1ccccc1)C(=O)N[C@@H](CC(=O)O)C(=O)N[C@@H](Cc1ccc(O)cc1)C(=O)N[C@@H](Cc1c[nH]c2ccccc12)C(=O)N[C@@H](Cc1cnc[nH]1)C(=O)N[C@@H](Cc1c[nH]c2ccccc12)C(=O)N[C@@H](CCC(=O)O)C(=O)O [2d] (H-RWVARRDYRGDMGFDYWHWE-OH)
EC50 (PD1:PDL1 interaction; [2]): 5650 nM | EC50 (PD1:PDL1 interaction; [PD1•PDL1] blocking EC50, Fig. 3B, cut-off bars of congeneric pairs (Phe/Trp vs Gly), n = 3): > 5000 nM

CSCC[C@H](NC(=O)[C@H](CC(=O)O)NC(=O)CNC(=O)[C@H](CCCNC(=N)N)NC(=O)[C@H](Cc1ccc(O)cc1)NC(=O)[C@H](CC(=O)O)NC(=O)[C@H](CCCNC(=N)N)NC(=O)[C@H](CCCNC(=N)N)NC(=O)[C@@H](NC(=O)[C@@H](NC(=O)[C@H](Cc1c[nH]c2ccccc12)NC(=O)[C@@H](N)CCCNC(=N)N)C(C)C)C(C)C)C(=O)NCC(=O)N[C@@H](Cc1ccccc1)C(=O)N[C@@H](CC(=O)O)C(=O)N[C@@H](Cc1ccc(O)cc1)C(=O)N[C@@H](Cc1c[nH]c2ccccc12)C(=O)N[C@H](C(=O)N[C@@H](Cc1c[nH]c2ccccc12)C(=O)N[C@@H](CCC(=O)O)C(=O)O)C(C)C [2h] (H-RWVVRRDYRGDMGFDYWVWE-OH)
EC50 (PD1:PDL1 interaction; [2]): 781 nM

CSCC[C@H](NC(=O)[C@H](CC(=O)O)NC(=O)[C@H](Cc1ccccc1)NC(=O)[C@H](CCCNC(=N)N)NC(=O)[C@H](Cc1ccc(O)cc1)NC(=O)[C@H](CC(=O)O)NC(=O)[C@H](CCCNC(=N)N)NC(=O)[C@H](CCCNC(=N)N)NC(=O)[C@@H](NC(=O)[C@@H](NC(=O)[C@H](Cc1c[nH]c2ccccc12)NC(=O)[C@@H](N)CCCNC(=N)N)C(C)C)C(C)C)C(=O)NCC(=O)N[C@@H](Cc1ccccc1)C(=O)N[C@@H](CC(=O)O)C(=O)N[C@@H](Cc1ccc(O)cc1)C(=O)N[C@@H](Cc1c[nH]c2ccccc12)C(=O)N[C@H](C(=O)N[C@@H](Cc1c[nH]c2ccccc12)C(=O)N[C@@H](CCC(=O)O)C(=O)O)C(C)C [2i] (H-RWVVRRDYRFDMGFDYWVWE-OH)
EC50 (PD1:PDL1 interaction; [2]): 70 nM

C=CC(=O)NCC[C@H](NC(=O)CNC(=O)[C@H](CC(=O)O)NC(=O)[C@@H](NC(=O)[C@H](CC(N)=O)NC(=O)[C@H](CCSC)NC(=O)CNC(=O)[C@H](CCC(=O)O)NC(=O)[C@H](CCCNC(=N)N)NC(=O)[C@H](C)NC(=O)[C@@H](NC(=O)[C@H](Cc1c[nH]c2ccccc12)NC(=O)[C@@H](N)CCCNC(=N)N)C(C)C)[C@@H](C)O)C(=O)N[C@@H](Cc1ccccc1)C(=O)N[C@@H](CC(N)=O)C(=O)N[C@@H](Cc1ccc(O)cc1)C(=O)N[C@@H](Cc1c[nH]c2ccccc12)C(=O)N[C@H](C(=O)N[C@@H](Cc1c[nH]c2ccccc12)C(=O)N[C@@H](CCC(=O)O)C(=O)O)C(C)C [2pa] (H-RWVAREGMNTDG[Dab](Acryloyl)FNYWVWE-OH)
EC50 (PD1:PDL1 interaction; [2]): 950 nM

RWVA-RGGGGKKGGFD-YWVWE [2a, bulged (B) β-hairpin model scaffold]
ΔGF0 ([1]; CD-melt at 228±2 nm, individual two-state Gibbs-Helmholtz fit (Origin 9.0), 0-95 °C, phosphate buffer 15 mM pH 6.5 ± MeOH): -0.90 ± 0.006 kcal/mol | Tm ([1]; Table S5, individual fit, 228±2 nm): 44.8 oC | Hairpin %-fold 291K ([1]; Table S5, individual fit, 291 K): 87 ± 1% | Hairpin %-fold 310K ([1]; Table S5, individual fit, 310 K): 66 ± 1% | -TΔSF0 ([1]; as E16): 9.87 ± 0.1 kcal/mol | ΔCpF0 ([1]; as E16): -372 ± 10 cal.deg-1.mol-1 | ΔHF0 ([1]; as E16): -10.8 ± 0.1 kcal/mol | melting temperature (TM) upshift vs regular hairpin 1a ([1]; calculated from CD-melts): about 10 °C | DHm, fitted value from OriginPro [1, 3]: -18.1854 kcal/mol | Tm, fitted value from OriginPro [1, 3]: 317.92 K

RWCAR-RDYRFDMGFD-YWGWE [Native, peptide 'Native', no fold by CD]
fold by CD signature (in words) ([1]; no hairpin exciton, no fit possible): No fold
